From patent publication US20180215788A1, “Compounds and Compositions for the Treatment of Ophthalmic Disorders” (Shire Human Genetic Therapies, Inc., priority 2017, published 2018)
*1 amine or outer side, *2 acyl side, *3 side chain or, on linkers, in order; H or OH if unused. Where a SMILES comes first, the peptide text is derived from it. [ ]: non-standard residue; d: D form. The star is where a group is joined. dOrn(Me2) = CN(C)CCC[C@@H](N)C(=O)O; X1 = O=C([C@H]1CCCN([*:1])C1)[*:2]; Hyp = O=C(O)[C@@H]1C[C@@H](O)CN1; NMeL = CN[C@@H](CC(C)C)C(=O)O; Octanoyl = CCCCCCCC(=O)*

System: normotensive dogs
Assay: Pharmacodynamics (IOP) after single topical ocular dose of SEQ ID NO:1, latanoprost or their combination
Assay type: in vivo
Details: for maximum percent change in intraocular pressure compared to contralateral eye / intraocular pressure: female dogs; for maximum percent change in intraocular pressure compared to contralateral eye: 0.03% SEQ ID NO:1, 0.005% latanoprost, alone or adjunctive, FIG. 6; for intraocular pressure: topical ocular 0.005% latanoprost, 0.03% SEQ ID NO:1, alone or adjunctively, FIG. 7
Method: A study of the pharmacodynamics following a single ascending topical ocular dose of SEQ ID NO:1; latanoprost; or a latanoprost/SEQ ID NO:1 combination was undertaken in normotensive dogs.
Animals were not fasted prior to dose administration. As appropriate, latanoprost was administered first followed by SEQ ID NO:1 approximately 5 minutes later. […] After the dose was administered, the eye was allowed to close naturally. Each animal was then restrained for approximately 1 minute to prevent rubbing of the eyes. The right eye was dosed first. All measurement and collection times were based on the time of dosing of the second (left) eye.
Following arrival, animals were preconditioned (trained) to IOP measurement procedures three times daily (i.e. 07:00, 12:00, and 15:00±0.5 hours) at least three times/week for approximately seven weeks prior to Phase 1. Three readings/eye were taken using a TonoVet.
Intraocular pressure was measured at −1, 0 (predose), 1, 2, 4, 8, 12, 24, and 48 hours postdose (following the last dose, as applicable) for all animals in Group 1, Phases 1 through 10. Three readings/eye were taken using a TonoVet.
Animals selected for pharmacodynamics (Group 1) were administered SEQ ID NO:1 (12, 35, 105, or 210 μg/eye), latanoprost (0.35, 0.875, or 1.75 μg/eye), and latanoprost/SEQ ID NO:1 in combination to the right eye (OD) and vehicle or phosphate-buffered saline (PBS) to the left eye (OS).
Intraocular pressure (IOP) was measured at various time points from pre-dose to 48 hours post-dose.
Pharmacodynamic animals (Group 1) were unilaterally treated with a single topical ocular dose of latanoprost (0.001, 0.0025, and 0.005%), followed by approximately 5 minutes later with a dose of SEQ ID NO:1 0.03%, in the right eye (OD) only.

SMILES | maximum percent change in intraocular pressure compared to contralateral eye | intraocular pressure | maximal delta decrease (Emax) in IOP, latanoprost dose response (dogs, latanoprost 0.001, 0.0025, 0.005% with SEQ ID NO:1 0.03%, FIG. 4)
CCCCCCCC(=O)N1CCC[C@H](C(=O)N[C@@H](Cc2ccccc2)C(=O)N[C@H](CCCN(C)C)C(=O)N[C@@H](CC(C)C)C(=O)N2C[C@H](O)C[C@H]2C(=O)N(C)[C@@H](CC(C)C)C(=O)N[C@@H](CC(=O)O)C(=O)N[C@@H](CCCNC(=N)N)C(=O)N[C@H](C(N)=O)[C@@H](C)CC)C1 [SEQ ID NO:1, Occ-Sni-Phe-orn(Me2)-Leu-Hyp-Nml-Asp-Arg-Ile-NH2] (Octanoyl-[X1]F[dOrn(Me2)]L[Hyp][NMeL]DRI-NH2) | 16% | 12 mmHg | –
CC(C)OC(=O)CCC/C=C\C[C@@H]1[C@@H](CC[C@@H](O)CCc2ccccc2)[C@H](O)C[C@@H]1O [latanoprost] | 21% | 12 mmHg | greater with increasing latanoprost concentrations, in combination with SEQ ID NO:1
